{"source": "patent US4835185A", "about": "“Immunomodulator for improving commercial performance of domestic animals” (Iowa State University Research Foundation, Inc., priority 1987, dated 1989)", "key": {"[1]": {"system": "white blood cells", "assay": "White blood cell number and differential, sheep (experiments 1 and 2)", "type": "in vivo, lambs (sheep)", "procedure": "A study was conducted to determine if KIC administration can alter white blood cell function, specifically T lymphocyte function, in growing sheep and cattle. Eighteen medium-framed crossbred male lambs were used in experiment 1. Lambs were randomly assigned to either a control diet (n=10) or a diet supplemented with 1% KIC (n=8). Animals were fed ad libitum in individual cages. At 100 and 108 days of treatment, 50-ml blood samples were collected for lymphocyte and neutrophil function tests.\nIn experiment 2, 19 intact crossbred male lambs were randomly assigned to either a saline treatment group (n=9) or a KIC treatment group (n=10). Control lambs were injected with 50 ml of a saline solution, and KIC treated lambs were injected with 50 ml of a 5% solution of KIC (sodium salt) daily (~2.5 g KIC/day). All injections were made intraperitoneally in the right posterior abdominal region after disinfection of the area. At day 60 and day 66 of treatment, blood was collected for lymphocyte and neutrophil function tests.\nSheep in experiments 1 and 2 were fed diets based on a mixture of 48% corn, 5% molasses, 20% alfalfa meal, 0.8% limestone, 0.6% salt-mineral-vitamin mix and ~25% of a protein supplement (either soybean meal, corn gluten meal, or corn gluten feed). The diets were isonitrogenous and analyzed to be ~20% crude protein and 89% dry matter. The KIC diet consisted of the basal diet to which was added 1% calcium-KIC, whereas the control diet was the basal diet plus 0.25% calcium carbonate.\nBlood was collected by jugular venapuncture into acid-citrate-dextrose anticoagulant. Lymphocytes and neutrophils were isolated, and lymphocyte blastogenesis and neutrophil function evaluated. KIC was obtained from SOBAC, Paris, France. Zein was purchased from Freeman Industries, Tuckahoe, NY. Each experiment was statistically analyzed by analysis of variance. In sheep experiments, individual animals were the experimental units, whereas pen means were analyzed in the cattle experiment.\n^2 Total white blood cell number (WBC) is the cells per mm^3."}, "[2]": {"system": "neutrophils", "assay": "Neutrophil function (experiments 1 to 3)", "type": "cell-based, sheep and cattle", "conditions": "any experiment", "procedure": "A study was conducted to determine if KIC administration can alter white blood cell function, specifically T lymphocyte function, in growing sheep and cattle. Eighteen medium-framed crossbred male lambs were used in experiment 1. Lambs were randomly assigned to either a control diet (n=10) or a diet supplemented with 1% KIC (n=8). Animals were fed ad libitum in individual cages. At 100 and 108 days of treatment, 50-ml blood samples were collected for lymphocyte and neutrophil function tests. In experiment 2, 19 intact crossbred male lambs were randomly assigned to either a saline treatment group (n=9) or a KIC treatment group (n=10). Control lambs were injected with 50 ml of a saline solution, and KIC treated lambs were injected with 50 ml of a 5% solution of KIC (sodium salt) daily (~2.5 g KIC/day). All injections were made intraperitoneally in the right posterior abdominal region after disinfection of the area. […] At the end of the 6-233k periods, 100-ml blood samples were collected from each animal, and lymphocyte and neutrophil function were evaluated. […] Lymphocytes and neutrophils were isolated, and lymphocyte blastogenesis and neutrophil function evaluated. […] Each experiment was statistically analyzed by analysis of variance. In sheep experiments, individual animals were the experimental units, whereas pen means were analyzed in the cattle experiment."}}, "data": [{"smiles": "CC(C)CC(=O)C(=O)O", "note": "[KIC, alpha-ketoisocaproate]", "values": [{"measurement": "% SEG", "setting": "[1]; Exp. 1, oral uncoated KIC 1% (control 38), p<.89", "result": "39% of Total WBC"}, {"measurement": "% LYM", "setting": "[1]; Exp. 1, oral uncoated KIC 1% (control 61), p<.34", "result": "59% of Total WBC"}, {"measurement": "% EOS", "setting": "[1]; Exp. 1, oral uncoated KIC 1% (control .7), p<.12", "result": "1.7% of Total WBC"}, {"measurement": "% EOS", "setting": "[1]; Exp. 2, IP injected KIC (saline 3.4), p<.01", "result": "1.7% of Total WBC"}, {"measurement": "% SEG", "setting": "[1]; Exp. 2, IP injected KIC (saline 41), p<.13", "result": "34% of Total WBC"}, {"measurement": "% LYM", "setting": "[1]; Exp. 2, IP injected KIC (saline 48), p<.04", "result": "61% of Total WBC"}, {"measurement": "antibody-dependent cell-mediated cytotoxicity", "setting": "[2]", "result": "did not alter"}]}]}
